This passage reports Ki results from patent US6060482A, “Triazaspirodecanone-methylchromans” (Bayer Aktiengesellschaft, priority 1991, dated 2000).

Broadly, the Ki is the equilibrium dissociation constant of an inhibitor or competing ligand from its target.

Where a name gives a salt, the structure may show the parent alone.

In one assay the target is 5-HT1 receptor. Put plainly: Affinity for the 5-HT1 receptor, receptor binding studies with 3H-serotonin on calf hippocampus membrane preparations. From the text: Affinity for the 5-HT1 receptor
In Table 1, the high affinity of the compounds according to the invention for 5-hydroxytryptamine receptors of the subtype 1 is represented by way of example. The values given are data which have been determined from receptor binding studies using calf hippocampus membrane preparations. The radioactively labelled ligand used for this was ^3 H-serotonin.

For a further assay, the target named is T1, dopamine D2 receptor (Rattus norvegicus, UniProt P61169).
T1 construct: membranes from the striatum of the rat; from tissue; host or cells: rat striatum membranes
T1 sequence (P61169 whole entry): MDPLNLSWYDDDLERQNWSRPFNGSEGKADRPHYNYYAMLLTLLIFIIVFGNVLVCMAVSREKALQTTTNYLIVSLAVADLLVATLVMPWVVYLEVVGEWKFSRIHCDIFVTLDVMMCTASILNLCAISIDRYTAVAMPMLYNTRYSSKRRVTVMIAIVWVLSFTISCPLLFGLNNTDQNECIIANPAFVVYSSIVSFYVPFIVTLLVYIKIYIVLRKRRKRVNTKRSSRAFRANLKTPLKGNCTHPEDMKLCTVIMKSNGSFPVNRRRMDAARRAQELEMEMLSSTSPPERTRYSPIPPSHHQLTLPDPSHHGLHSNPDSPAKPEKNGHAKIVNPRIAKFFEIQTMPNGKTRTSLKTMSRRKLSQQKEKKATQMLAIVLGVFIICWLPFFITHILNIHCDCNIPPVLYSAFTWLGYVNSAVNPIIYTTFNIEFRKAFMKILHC
Put plainly: Dopamine D2 receptor test, binding of 3H-sulpiride on membranes from the striatum of the rat. Conditions: Ki calculated from IC50 of displacement curves. How it is done: Dopamine D2 receptor test
This test is carried out according to the following reference: Imafuku J. (1987), Brain Research 402; 331-338.
In this test, the binding of the selective D2 -receptor antagonist ^3 H-sulpiride on membranes from the striatum of the rat is measured. Compounds which bind to dopamine D2 -receptors inhibit the binding of ^3 H-sulpiride in a concentration-dependent manner. IC50 values are determined from the displacement curves and the inhibition constants Ki are calculated from these.

The next assay deals with T2, 5-HT1A receptor (Bos taurus, UniProt F6Q2H9).
T2 construct: 5-HT1A receptors in calf hippocampus membranes; from tissue; host or cells: calf hippocampus membranes
T2 sequence (F6Q2H9 1-422): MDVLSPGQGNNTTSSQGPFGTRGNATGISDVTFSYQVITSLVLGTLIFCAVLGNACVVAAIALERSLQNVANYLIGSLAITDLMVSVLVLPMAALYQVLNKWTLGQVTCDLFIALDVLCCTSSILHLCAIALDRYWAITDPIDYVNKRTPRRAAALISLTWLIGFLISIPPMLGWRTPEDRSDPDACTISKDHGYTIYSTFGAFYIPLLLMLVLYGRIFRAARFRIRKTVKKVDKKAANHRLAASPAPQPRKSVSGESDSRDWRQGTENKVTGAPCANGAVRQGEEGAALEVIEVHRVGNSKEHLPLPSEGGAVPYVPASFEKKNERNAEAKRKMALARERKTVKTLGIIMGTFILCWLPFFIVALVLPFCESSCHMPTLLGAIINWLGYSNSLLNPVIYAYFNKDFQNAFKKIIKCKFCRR
Put plainly: Affinity for the 5-HT1A receptor, binding of 3H-ipsapirone in calf hippocampus membranes. How it is done:
Affinity for the 5-HT1A receptor
[W. U. Dompert et al., Naunyn-Schmiedeberg's Arch. Pharmacol. (1985), 328, 467-470].
In this test, the binding of ^3 H-ipsapirone to 5-HT1A receptors in calf hippocampus membranes is measured.

For `O=C1NCN(c2ccccc2)C12CCN(CC1CCc3ccccc3O1)CC2` (centres unmarked) [Example 1, 8-(Chroman-2-yl-methyl)-1-phenyl-1,3,8-triazaspiro[4.5]-decan-4-one], the inhibition constant Ki at 5-HT1 receptor was 2 nM; at dopamine D2 receptor it was 0.2 nM.
The molecule `O=C1NCN(c2ccccc2)C12CCN(C[C@H]1CCc3ccccc3O1)CC2` [Example 4] gave a Ki on 5-HT1 receptor of 1 nM.
`COc1cccc2c1OC(CN1CCC3(CC1)C(=O)NCN3c1ccccc1)CC2` (centres unmarked) [Example 6] gave an inhibition constant Ki at 5-HT1A receptor of 1 nM.
For the molecule `COc1cccc2c1OC(CN1CCC3(CC1)C(=O)NCN3c1ccccc1)CC2` (centres unmarked) [Example 2], the Ki at 5-HT1 receptor is 1.5 nM; at dopamine D2 receptor, 0.3 nM.
Molecule `O=C1NCN(c2ccccc2)C12CCN(CC1CCc3ccccc3O1)CC2` (centres unmarked) [Example 5, 8-(Chroman-2-yl-methyl)-1-phenyl-1,3,8-triazaspiro[4.5]-decan-4-one HCl salt] registered a Ki on 5-HT1A receptor of 1 nM.
Turning to `O=C1NCN(c2ccccc2)C12CCN(C[C@@H]1CCc3ccccc3O1)CC2` [Example 3], the Ki at dopamine D2 receptor was 0.6 nM.
